Source: patent US6863865B2, “Sterilization of pharmaceuticals” (Breath Limited, priority 2000, dated 2005)

Legend:
[1] = cited from earlier work
[2] = Treatment with high intensity light (Pure-bright process); format: physicochemical; settings: light at 900 times the intensity of sunlight at sea level; formulations produced as in Example 1
Text: An alternative method of sterilization of a budesonide suspension is treatment with high intensity light. The so-called “Pure-bright” process allows treatment with light at 900 times the intensity of sunlight at sea level.

[3] = HPLC evaluation of impurities after high temperature short time (HTST) sterilization; format: physicochemical; settings: Fo exposures up to 24
Text: The formulation to be sterilized was passed through narrow lines of pharmaceutical quality stainless steel in which the sample was rapidly raised to an elevated temperature, maintained at this holding temperature for a period of time, then rapidly returned to ambient temperature. Parameters described in Table 1 are the BMRT (bulk mean retention time), that is the time between the sample being raised above ambient temperature and being returned to ambient temperature, and the FFERT, the time for which the sample is maintained at the elevated temperature. […] The theoretical kill rate, Fo, may be calculated from the FFERT and the elevated temperature. The value of Fo is optimally greater than 10, but values greater than 8 are acceptable for the production of sterile formulations.
This example was carried out to evaluate the effect of HTST on the chemical purity of pharmaceutical preparations by assessing the levels of degradation obtained in samples exposed to varying Fo (effective killing times) times. For the purposes of these experiments, budesonide suspensions were used in the evaluation.
The samples were then evaluated using high performance liquid chromatography to assess the level of impurities present.

For CCCC1O[C@@H]2C[C@H]3[C@@H]4CCC5=CC(=O)C=C[C@]5(C)[C@H]4[C@@H](O)C[C@]3(C)[C@]2(C(=O)CO)O1 (stereo partly drawn) [budesonide], the stability to gamma-irradiation [1] is given as “destroyed”, the “stability of budesonide to high intensity light” value [2] is given as “completely destroyed” and the “effect on chemical stability” value [3] is given as “no adverse effect”.
